ChEMBL document CHEMBL2429798, “Antioxidant effectiveness generated by one or two phenolic hydroxyl groups in coumarin-substituted dihydropyrazoles” (Eur J Med Chem, 2013)
The source made the active and inactive calls. No cut-off for these calls is given here.

Columns and labels:
Type in all cases: functional
[1] = tested on: Radical scavenging activity; test: Antioxidant activity assessed as DPPH radical scavenging activity at 10 uM
[2] = Antioxidant activity assessed as time required to inhibit AAPH-induced oxidation of DNA by TBARS assay
[3] = Antioxidant activity assessed as ABTS radical scavenging activity at 5 uM
[4] = Antioxidant activity assessed as galvinoxyl radical scavenging activity at 15 uM
[5] = Antioxidant activity assessed as inhibition of hydroxyl radical-induced oxidation of DNA at 0.2 mM after 30 mins by TBARS assay relative to control
[6] = Antioxidant activity assessed as inhibition of Cu2+/GSH-induced oxidation of DNA at 0.2 mM measured every 30 mins by TBARS assay
[7] = Antioxidant activity assessed as inhibition of AAPH-induced oxidation of DNA at 1 to 400 uM measured every 2 hrs by TBARS assay

| Structure (SMILES) | K [1] [M⁻¹ s⁻¹] | TIME [2] [h] | K [3] [M⁻¹ s⁻¹] | K [4] [M⁻¹ s⁻¹] | inhibition [5] [%] | inhibition [6] | inhibition [7] |
| --- | --- | --- | --- | --- | --- | --- | --- |
| COc1cc(C2CC(c3cc4ccccc4oc3=O)=NN2c2ccccc2)ccc1O (stereo not drawn) | 2540 | 0.0313 | 5990 | 6740 | 53.9 |  |  |
| O=c1oc2ccccc2cc1C1=NN(c2ccccc2)C(c2ccccc2)C1 (stereo not drawn) |  |  |  |  | 67.8 | Active | inactive |
| O=c1oc2ccccc2cc1C1=NN(c2ccccc2)C(c2ccccc2O)C1 (stereo not drawn) | 540 | 0.0192 | 7440 | 4350 | 44.2 |  |  |
| O=c1oc2ccccc2cc1C1=NN(c2ccccc2)C(c2cccc(O)c2)C1 (stereo not drawn) | 700 | 0.016 | 4310 | 7230 | 66.4 |  |  |
| COc1ccc(C2CC(c3cc4ccccc4oc3=O)=NN2c2ccccc2)cc1 (stereo not drawn) |  |  |  |  | 75.3 | Active | inactive |
| O=c1oc2ccccc2cc1C1=NN(c2ccccc2)C(c2ccc(O)cc2)C1 (stereo not drawn) | 2440 | 0.0173 | 11200 | 5820 | 81.1 |  |  |
| O=c1oc2ccccc2cc1C1=NN(c2ccccc2)C(c2ccc(O)cc2O)C1 (stereo not drawn) | 3720 | 0.0343 | 24600 | 7900 | 35.5 | Active |  |
| O=c1oc2ccccc2cc1C1=NN(c2ccccc2)C(c2ccc(O)c(O)c2)C1 (stereo not drawn) | 8830 | 0.0327 | 12900 | 6920 | 43.4 | Active |  |
